Here are results for 7 compounds from patent publication US20230365537A1, “POLO LIKE KINASE 4 INHIBITORS” (ORIC Pharmaceuticals, Inc., priority 2021, published 2023).

One assay addresses human recombinant PLK4 (Homo sapiens (Human), UniProt O00444). Put plainly: PLK4 Biochemical Assay (ADP-Glo). Particulars: 0.5 nM PLK4, 8.0 µM ATP, 4.7 µM MBP, 6 hours at RT. In outline: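 Recombinant human PLK4 (added at 1.0 nM) was preincubated 15 min at RT with compound in 50 mM HEPES pH 7.5, 10 mM MgCl2, 1 mM EGTA, 1 mM DTT, 0.01% Brij-35, 0.01% BSA. ADP formed was detected by ADP-Glo luminescence (40 min ATP depletion, 30 min detection). IC50 came from a four-parameter fit.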

Assay [1] addresses human recombinant Aurora B (Homo sapiens (Human), UniProt Q96GD4). Put plainly: Aurora B Kinase Biochemical Assay (ADP-Glo). Particulars: ratio of Aurora B IC50 to PLK4 IC50 (selectivity). In outline: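 Recombinant human Aurora B (20 nM in pH 7.5 HEPES buffer with MgCl2, EGTA, DTT, Brij-35, BSA) preincubated with compound 15 min at RT. ADP formed quantified by ADP-Glo luminescence after ATP depletion (40 min) and detection (30 min). IC50 from four-parameter non-linear regression.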
Background: ADP-Glo turns the ADP formed in a reaction into a luminescent signal.

The test system of a further assay is CHP-134 cells. Put plainly: CHP134 CellTiter-Glo (CTG) Assay. Format: cell-based. Particulars: Homo sapiens, CHP-134, 120 h, 5 days, viable cells by CellTiter-Glo. Put shortly:
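CHP-134 cells seeded at 200 cells/well for 16 h, then given nine 1:3 serial dilutions in quadruplicate at 37° C, 5% CO2. Viable cells measured by CellTiter-Glo luminescence after 5 days; IC50 calculated from curves.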

Assay [2] has as its target human recombinant Aurora A (Homo sapiens (Human), UniProt O14965). The assay is described as follows: Aurora A Kinase Biochemical Assay (ADP-Glo). Particulars: ratio of Aurora A IC50 to PLK4 IC50 (selectivity).

Chain of human recombinant PLK4 (O00444 whole entry): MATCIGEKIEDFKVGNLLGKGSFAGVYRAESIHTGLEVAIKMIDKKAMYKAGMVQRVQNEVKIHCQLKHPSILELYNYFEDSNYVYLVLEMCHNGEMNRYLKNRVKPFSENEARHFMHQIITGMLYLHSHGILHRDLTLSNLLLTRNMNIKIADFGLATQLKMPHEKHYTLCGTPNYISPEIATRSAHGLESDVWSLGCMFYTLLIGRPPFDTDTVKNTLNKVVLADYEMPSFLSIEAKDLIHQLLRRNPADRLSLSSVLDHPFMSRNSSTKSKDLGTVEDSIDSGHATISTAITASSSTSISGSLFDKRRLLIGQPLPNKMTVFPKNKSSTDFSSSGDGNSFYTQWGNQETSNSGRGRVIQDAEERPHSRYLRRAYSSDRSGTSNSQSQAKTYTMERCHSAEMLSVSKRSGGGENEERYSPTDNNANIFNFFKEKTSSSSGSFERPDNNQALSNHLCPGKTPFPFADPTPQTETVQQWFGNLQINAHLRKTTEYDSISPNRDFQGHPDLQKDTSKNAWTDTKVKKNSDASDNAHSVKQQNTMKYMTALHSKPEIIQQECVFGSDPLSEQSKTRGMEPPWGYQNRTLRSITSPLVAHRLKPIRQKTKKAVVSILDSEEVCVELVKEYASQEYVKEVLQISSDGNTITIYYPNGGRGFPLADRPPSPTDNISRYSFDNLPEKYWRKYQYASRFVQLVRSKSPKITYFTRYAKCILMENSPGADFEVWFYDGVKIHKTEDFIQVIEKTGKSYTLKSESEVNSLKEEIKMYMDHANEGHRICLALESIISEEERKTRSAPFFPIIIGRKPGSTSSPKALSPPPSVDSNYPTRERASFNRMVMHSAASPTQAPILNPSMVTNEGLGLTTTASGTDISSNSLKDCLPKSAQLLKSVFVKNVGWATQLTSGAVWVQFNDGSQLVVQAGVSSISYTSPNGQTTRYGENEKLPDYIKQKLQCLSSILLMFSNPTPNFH
Chain of human recombinant Aurora A (O14965 whole entry): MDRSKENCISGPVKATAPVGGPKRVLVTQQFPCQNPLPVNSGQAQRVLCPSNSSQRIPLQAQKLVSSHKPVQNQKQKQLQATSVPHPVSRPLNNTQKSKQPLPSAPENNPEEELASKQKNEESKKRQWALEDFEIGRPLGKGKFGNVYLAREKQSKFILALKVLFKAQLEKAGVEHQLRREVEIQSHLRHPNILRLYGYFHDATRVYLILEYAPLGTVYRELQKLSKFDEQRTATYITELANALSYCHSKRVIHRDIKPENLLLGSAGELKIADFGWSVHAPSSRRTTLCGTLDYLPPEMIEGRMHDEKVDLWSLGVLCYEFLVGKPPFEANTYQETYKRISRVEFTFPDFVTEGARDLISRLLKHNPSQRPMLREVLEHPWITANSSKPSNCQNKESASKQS
Chain of human recombinant Aurora B (Q96GD4 whole entry): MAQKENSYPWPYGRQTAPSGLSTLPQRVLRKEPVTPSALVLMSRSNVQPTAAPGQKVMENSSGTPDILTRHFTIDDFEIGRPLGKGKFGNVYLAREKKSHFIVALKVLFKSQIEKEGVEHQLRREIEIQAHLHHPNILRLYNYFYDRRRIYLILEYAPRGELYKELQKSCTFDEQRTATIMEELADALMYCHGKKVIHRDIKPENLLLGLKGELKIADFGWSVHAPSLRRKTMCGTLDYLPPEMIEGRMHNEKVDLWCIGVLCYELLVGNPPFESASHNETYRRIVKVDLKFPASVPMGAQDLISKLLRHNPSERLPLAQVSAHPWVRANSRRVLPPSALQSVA

One may read the IC50 as the midpoint of a concentration-inhibition curve. On to `COc1ccc2c(c1)[C@]1(C[C@H]1c1ccc3c(Nc4ccc(C(=O)NCC(F)F)nc4OC)n[nH]c3c1)C(=O)N2` [Example 244, N-(2,2-difluoroethyl)-6-methoxy-5-({6-[(1R,2S)-5′-methoxy-2′-oxo-1′,2′-dihydrospiro[cyclopropane-1,3′-indol]-2-yl]-1H-indazol-3-yl}amino)pyridine-2-carboxamide], for which the 50% inhibitory concentration (IC50) on human recombinant PLK4 came to 2.91 nM; in the assay on CHP-134 cells, 545 nM. The “[Aurora B IC50 (nM)]/[PLK4 IC50 (nM)]” value in assay [1] was 312.3. The “[Aurora A IC50 (nM)]/[PLK4 IC50 (nM)]” value in assay [2] stood at 1578.3505.
In the case of `COc1ccc2c(c1)[C@]1(C[C@H]1c1ccc3c(Nc4ccc(C(=O)N5[C@H](C)CCC[C@@H]5C)nc4OC)n[nH]c3c1)C(=O)N2` [Example 245, (1R,2S)-2-[3-({6-[(2R,6S)-2,6-dimethylpiperidine-1-carbonyl]-2-methoxypyridin-3-yl}amino)-1H-indazol-6-yl]-5′-methoxyspiro[cyclopropane-1,3′-indol]-2′(1′H)-one], the IC50 on human recombinant PLK4 came to 0.738 nM; in the assay with CHP-134 cells, 131 nM. In addition, the “[Aurora B IC50 (nM)]/[PLK4 IC50 (nM)]” value in assay [1] came to 319.6476. Besides, in assay [2], the “[Aurora A IC50 (nM)]/[PLK4 IC50 (nM)]” value stood at 1730.3523.
For `COc1ccc2c(c1)[C@]1(C[C@H]1c1ccc3c(Nc4ccc(C(=O)N5CC6CCC(C5)O6)nc4OC)n[nH]c3c1)C(=O)N2` [Example 246, (1R,2S)-5′-methoxy-2-(3-{[2-methoxy-6-(8-oxa-3-azabicyclo[3.2.1]octane-3-carbonyl)pyridin-3-yl]amino}-1H-indazol-6-yl)spiro[cyclopropane-1,3′-indol]-2′(1′H)-one] the same measures were 0.843 nM, 68.4 nM, 176.8683 and 426.8090.
For `COc1ccc2c(c1)[C@]1(C[C@H]1c1ccc3c(Nc4ncc(S(C)(=O)=O)cc4Cl)n[nH]c3c1)C(=O)N2` [Example 247, (1R,2S)-2-(3-{[3-chloro-5-(methanesulfonyl)pyridin-2-yl]amino}-1H-indazol-6-yl)-5′-methoxyspiro[cyclopropane-1,3′-indol]-2′(1′H)-one], the IC50 on human recombinant PLK4 turned out to be 3.73 nM; in the assay with CHP-134 cells, 1010 nM. Moreover, the “[Aurora B IC50 (nM)]/[PLK4 IC50 (nM)]” value in assay [1] is reported as 423.6743. Also, the “[Aurora A IC50 (nM)]/[PLK4 IC50 (nM)]” value in assay [2] is 1434.9223.
For `COc1ccc2c(c1)[C@]1(C[C@H]1c1ccc3c(Nc4ncc(S(=O)(=O)C(C)C)cc4OC)n[nH]c3c1)C(=O)N2` [Example 248, (1R,2S)-5′-Methoxy-2-(3-{[3-methoxy-5-(propane-2-sulfonyl)pyridin-2-yl]amino}-1H-indazol-6-yl)spiro[cyclopropane-1,3′-indol]-2′(1′H)-one] the same measures were 1.24 nM, 120 nM, 206.5375 and 683.4543.
Take `COc1ccc2c(c1)[C@]1(C[C@H]1c1ccc3c(Nc4ccc(C(=O)N(C)C)nc4Cl)n[nH]c3c1)C(=O)N2` [Example 251, 6-chloro-5-({6-[(1R,2S)-5′-methoxy-2′-oxo-1′,2′-dihydrospiro[cyclopropane-1,3′-indol]-2-yl]-1H-indazol-3-yl}amino)-N,N-dimethylpyridine-2-carboxamide]: the values for the IC50 on human recombinant PLK4 and with CHP-134 cells were 1.33 nM and 287 nM, respectively. In addition, the “[Aurora B IC50 (nM)]/[PLK4 IC50 (nM)]” value in assay [1] is given as 268.6936. Further, the “[Aurora A IC50 (nM)]/[PLK4 IC50 (nM)]” value in assay [2] is recorded as 1734.2342.
For `COc1ccc2c(c1)[C@]1(C[C@H]1c1ccc3c(Nc4ncc(C5CS(=O)(=O)C5)nc4OC)n[nH]c3c1)C(=O)N2` [Example 254, 3-[6-methoxy-5-({6-[(1R,2S)-5′-methoxy-2′-oxo-1′,2′-dihydrospiro[cyclopropane-1,3′-indol]-2-yl]-1H-indazol-3-yl}amino)pyrazin-2-yl]-1λ6-thietane-1,1-dione] the same measures were 5.19 nM, 2160 nM, 96.18 and 297.6878.
